Test systems include NCI/ADR-RES ovarian; HS 578T breast; DU-145 prostate; MDA-MB-435.
What all share (assay): inhibition of tumour cell growth, NCI panel, 48 h

Each structure is given as a SMILES string. Where “and” joins values, the source holds several entries; their conditions need not be identical. Equal entries are not always repeated.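 Assay format: 96-well plates, 48-hour exposure. The concentration for 50% growth inhibition is given as GI50. Definition used: TGI = concentration required for complete inhibition of growth.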

As to `C=C(Cl)C(Br)(CCl)CCC(Br)C(C)(C)Cl` (stereo not given), the GI50 was 4.39 µM in the experiment with NCI/ADR-RES ovarian, 2.62 µM in the experiment on HS 578T breast and 2.13 µM with MDA-MB-435. Further, the TGI was 10.9 µM in the experiment with NCI/ADR-RES ovarian; above 27.9 µM in the experiment on HS 578T breast; 26.7 µM with DU-145 prostate; 8.65 µM and 4.27 µM with MDA-MB-435.

As for `CCCC(=O)Nc1cc2c3c(c1)CCCN3CCC2`, the TGI in the experiment with NCI/ADR-RES ovarian, in the experiment on HS 578T breast, in the experiment on DU-145 prostate and in the experiment with MDA-MB-435 was above 10 µM in each case.

For `COc1cc2c(cc1OCCCNC(=O)c1cccc3c(=O)c4ccccc4[nH]c13)N=C[C@@H]1CCCN1C2=O`, the GI50 in the experiment on NCI/ADR-RES ovarian was 0.379 µM; with HS 578T breast, below 0.01 µM; with DU-145 prostate it was below 0.01 µM. Moreover, the figures for the TGI in the experiment on NCI/ADR-RES ovarian, in the experiment with HS 578T breast and with DU-145 prostate were above 26.4 µM, 0.121 µM and 13.5 µM, respectively.

On to `C#C[C@]1(O)CCC2C3CCc4cc(O)ccc4C3CC[C@@]21C` (stereo not given in full), for which the GI50 in the experiment with NCI/ADR-RES ovarian is 3.14 µM; in the experiment on HS 578T breast, 3.08 µM; in the experiment with DU-145 prostate it was 6.71 µM; with MDA-MB-435 it was 0.628 µM. Moreover, the TGI came out at 25.4 µM in the experiment on NCI/ADR-RES ovarian, 17.7 µM in the experiment with HS 578T breast, 23.5 µM in the experiment with DU-145 prostate and 9.59 µM in the experiment with MDA-MB-435.

For the molecule `Cn1cc(C2=C(c3cn(CCCCO)c4ccccc34)C(=O)NC2=O)c2ccccc21`, the GI50 is 11.2 µM in the experiment on NCI/ADR-RES ovarian, 4.87 µM with HS 578T breast, 10 µM in the experiment on DU-145 prostate and 8.81 µM in the experiment with MDA-MB-435. Besides, the TGI in the experiment on NCI/ADR-RES ovarian, with HS 578T breast, with DU-145 prostate and with MDA-MB-435 was above 25 µM throughout.

With `Cc1ccc(NC(=O)CC2CC2)cc1-c1ccc(C(=O)NCC2CC2)cc1`, the GI50 in the experiment on NCI/ADR-RES ovarian is above 25 µM; with HS 578T breast it was above 25 µM; in the experiment on DU-145 prostate, above 25 µM; in the experiment with MDA-MB-435, above 19.5 µM. In addition, the TGI in the experiment on NCI/ADR-RES ovarian, with HS 578T breast, with DU-145 prostate and in the experiment on MDA-MB-435 was above 25 µM each time.

`COc1ccc2c(c1)C(=O)c1c-2c(N2CCN(C(=O)CNCCNCCO)CC2)nc2ccccc12`: the GI50 in the experiment on NCI/ADR-RES ovarian is 15 µM; in the experiment with HS 578T breast, 5.92 µM; with DU-145 prostate, 6.17 µM; in the experiment with MDA-MB-435 it was 8.18 µM. Besides, the TGI with NCI/ADR-RES ovarian amounted to 33.1 µM; in the experiment with HS 578T breast, 25.7 µM; with DU-145 prostate, 18.4 µM; in the experiment with MDA-MB-435 it was 28.5 µM.

With `CCOC(=O)Nc1ccc(C)c(NC(=O)OCC)c1`, the TGI with NCI/ADR-RES ovarian, in the experiment on HS 578T breast, in the experiment on DU-145 prostate and in the experiment with MDA-MB-435 was above 100 µM each time.

With `COc1ccc(/C=C2/N=C(c3ccccc3)N(c3c(C)n(C)n(-c4ccccc4)c3=O)C2=O)cc1OC`, the GI50 with NCI/ADR-RES ovarian is above 100 µM; with HS 578T breast, 60 µM; with DU-145 prostate it was above 100 µM; with MDA-MB-435, above 100 µM. Moreover, the TGI in the experiment on NCI/ADR-RES ovarian, in the experiment with HS 578T breast, in the experiment on DU-145 prostate and in the experiment on MDA-MB-435 was above 100 µM each time.

`O=C(CC1(O)C(=O)N(Cc2ccccc2)c2ccc(F)cc21)c1ccc(C(=O)NCC2CCC3(CC2)OOC2(CCCCC2)OO3)cc1` (stereo not given): the GI50 was 0.373 µM in the experiment with NCI/ADR-RES ovarian, 1.92 µM in the experiment on HS 578T breast, 0.187 µM with DU-145 prostate and 0.468 µM in the experiment with MDA-MB-435. In addition, the TGI was 1.14 µM with NCI/ADR-RES ovarian, 6.08 µM in the experiment on HS 578T breast, 0.335 µM with DU-145 prostate and 1.42 µM with MDA-MB-435.

As for `COc1ccc(-c2nc3ccc(-c4nc5ccc(N6CCN(c7ccccc7)CC6)cc5[nH]4)cc3[nH]2)cc1OC`, the GI50 with NCI/ADR-RES ovarian is above 100 µM; in the experiment on HS 578T breast it was 2.25 µM; in the experiment on DU-145 prostate, 1.83 µM; in the experiment on MDA-MB-435 it was 1.73 µM. Besides, the TGI was above 100 µM in the experiment with NCI/ADR-RES ovarian, 4.93 µM in the experiment on HS 578T breast, 3.46 µM in the experiment on DU-145 prostate and 3.32 µM with MDA-MB-435.

As for `O=C(N[C@@H](c1ccc(Cl)c(Cl)c1)C1CNC1)c1ccc2cnccc2c1`, the GI50 is 12.1 µM in the experiment with NCI/ADR-RES ovarian, 0.0256 µM in the experiment with HS 578T breast, 0.644 µM with DU-145 prostate and 0.216 µM in the experiment with MDA-MB-435. In addition, the TGI amounted to 27.1 µM with NCI/ADR-RES ovarian, 0.483 µM in the experiment on HS 578T breast, 13.2 µM in the experiment with DU-145 prostate and 3.81 µM in the experiment on MDA-MB-435.

For `Nc1c(C(=O)Nc2ccncc2)sc2nc3c(cc12)CCCCCCCC3`, the GI50 with NCI/ADR-RES ovarian is 0.921 µM; in the experiment on HS 578T breast, 1.08 µM; in the experiment on DU-145 prostate it was 0.944 µM; with MDA-MB-435, 0.869 µM. Further, the TGI came to 1.78 µM in the experiment with NCI/ADR-RES ovarian, 2.54 µM in the experiment on HS 578T breast, 1.72 µM in the experiment with DU-145 prostate and 1.6 µM in the experiment with MDA-MB-435.

On to `O=C(Nc1ccncc1)C(=O)c1cn(S(=O)(=O)c2ccc(F)cc2)c2ccccc12`, for which the GI50 was 1.76 µM with NCI/ADR-RES ovarian, 3.65 µM in the experiment on HS 578T breast and 3.37 µM in the experiment on DU-145 prostate. The figures for the TGI in the experiment on NCI/ADR-RES ovarian, in the experiment on HS 578T breast and in the experiment on DU-145 prostate were above 100 µM, 82.1 µM and 20.4 µM, respectively.

Consider `COc1cccc2c1C(=O)c1c(O)c3c(c(O)c1C2=O)C[C@](O)(C(=O)CO)C[C@H]3O[C@@H]1C[C@@H](NC(=O)CCCCCN(C)C2(c3ccc(F)cc3)CC3CCC2C3)[C@H](O)[C@@H](C)O1` (stereo not given in full), for which the GI50 with NCI/ADR-RES ovarian was 13 µM; with HS 578T breast it was 8.26 µM; with DU-145 prostate, 1.13 µM; in the experiment with MDA-MB-435, 8.67 µM. The TGI turned out to be 50 µM with NCI/ADR-RES ovarian, 21.6 µM in the experiment on HS 578T breast, 4.24 µM in the experiment with DU-145 prostate and 19.4 µM in the experiment on MDA-MB-435.

As for `C=C(C)[C@@H]1CC[C@]2(C)[C@H](CC=C3[C@@H]4CC(C)(C)CC[C@]4(C(N)=O)CC[C@]32C)[C@@]1(C)CCC#N`, the GI50 was 3.75 µM in the experiment on NCI/ADR-RES ovarian, 3.28 µM with HS 578T breast, 4.8 µM in the experiment with DU-145 prostate and 3.21 µM in the experiment with MDA-MB-435. Further, the TGI was above 100 µM with NCI/ADR-RES ovarian, 54.6 µM in the experiment with HS 578T breast, above 100 µM with DU-145 prostate and 20.5 µM in the experiment with MDA-MB-435.

Take `CN(C)C(n1cc2c(c1)-c1ccc(Cl)cc1C(c1ccccc1F)=NC2)n1cc2c(c1)-c1ccc(Cl)cc1C(c1ccccc1F)=NC2`: the TGI with NCI/ADR-RES ovarian, with HS 578T breast, in the experiment on DU-145 prostate and in the experiment with MDA-MB-435 was above 100 µM in each case.

As to `CCCN1C(=O)N(CCC)C2C1NC(=S)N2/N=C/C=C/c1ccccc1OC` (stereo not given), the GI50 with NCI/ADR-RES ovarian is 0.498 µM; in the experiment on HS 578T breast it was 0.478 µM; in the experiment on DU-145 prostate, 0.557 µM. For the same molecule, the TGI with NCI/ADR-RES ovarian, in the experiment with HS 578T breast and in the experiment on DU-145 prostate was above 100 µM throughout.

Values taken from PubChem BioAssay (NCI).
